# From publication PMC2790104, “Effects of Acrylamide on the Activity and Structure of Human Brain Creatine Kinase” (International Journal of Molecular Sciences, 2009)
# Target: T1, HBCK (human brain-type creatine kinase, human BB-CK) (Homo sapiens, UniProt P12277)
# T1 construct: gene CKB; homodimer BB; identified by LC-MS/MS
# Test: residual activity after […] h incubation, pH-colorimetric assay (thymol blue, […] nm)
# Assay type: biochemical
# T1 sequence (P12277 2-381): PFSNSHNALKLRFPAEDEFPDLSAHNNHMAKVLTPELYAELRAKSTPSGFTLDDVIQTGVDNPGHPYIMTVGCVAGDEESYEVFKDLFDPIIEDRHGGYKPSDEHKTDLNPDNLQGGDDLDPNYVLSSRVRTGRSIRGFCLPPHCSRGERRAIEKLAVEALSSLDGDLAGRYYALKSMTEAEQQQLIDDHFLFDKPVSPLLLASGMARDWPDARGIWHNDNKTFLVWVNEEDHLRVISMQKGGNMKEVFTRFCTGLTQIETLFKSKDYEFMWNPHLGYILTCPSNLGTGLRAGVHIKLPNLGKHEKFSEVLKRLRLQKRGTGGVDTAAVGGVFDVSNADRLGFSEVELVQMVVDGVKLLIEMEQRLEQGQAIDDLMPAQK
structure (smiles),measurement,value
C=CC(N)=O [acrylamide],IC50,~50 mM
